{"source": "ChEMBL document CHEMBL1201862", "about": "“PubChem BioAssay data set” (2004)", "key": {"[1]": {"target": "T1, Protein skinhead-1 (Caenorhabditis elegans, UniProt P34707)", "T1 sequence (P34707 whole entry)": "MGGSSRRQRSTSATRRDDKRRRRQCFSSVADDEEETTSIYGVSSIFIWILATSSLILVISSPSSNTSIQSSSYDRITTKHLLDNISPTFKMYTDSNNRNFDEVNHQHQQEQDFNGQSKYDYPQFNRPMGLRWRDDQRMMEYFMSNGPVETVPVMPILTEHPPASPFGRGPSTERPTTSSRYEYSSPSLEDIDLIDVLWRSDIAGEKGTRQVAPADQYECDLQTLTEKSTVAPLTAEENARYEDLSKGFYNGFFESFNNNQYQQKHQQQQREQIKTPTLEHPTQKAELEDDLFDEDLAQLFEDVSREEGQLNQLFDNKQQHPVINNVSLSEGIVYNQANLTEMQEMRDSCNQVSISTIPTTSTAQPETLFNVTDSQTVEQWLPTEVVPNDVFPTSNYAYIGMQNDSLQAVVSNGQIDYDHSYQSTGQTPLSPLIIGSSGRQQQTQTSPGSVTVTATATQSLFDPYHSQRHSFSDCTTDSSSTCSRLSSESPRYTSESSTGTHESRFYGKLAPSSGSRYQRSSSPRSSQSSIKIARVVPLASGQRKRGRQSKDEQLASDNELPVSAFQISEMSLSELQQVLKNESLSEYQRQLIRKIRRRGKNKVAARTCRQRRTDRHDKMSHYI", "format": "functional"}, "[2]": {"target": "T2, High affinity choline transporter 1 (Homo sapiens, UniProt Q9GZV3)", "T2 sequence (Q9GZV3 whole entry)": "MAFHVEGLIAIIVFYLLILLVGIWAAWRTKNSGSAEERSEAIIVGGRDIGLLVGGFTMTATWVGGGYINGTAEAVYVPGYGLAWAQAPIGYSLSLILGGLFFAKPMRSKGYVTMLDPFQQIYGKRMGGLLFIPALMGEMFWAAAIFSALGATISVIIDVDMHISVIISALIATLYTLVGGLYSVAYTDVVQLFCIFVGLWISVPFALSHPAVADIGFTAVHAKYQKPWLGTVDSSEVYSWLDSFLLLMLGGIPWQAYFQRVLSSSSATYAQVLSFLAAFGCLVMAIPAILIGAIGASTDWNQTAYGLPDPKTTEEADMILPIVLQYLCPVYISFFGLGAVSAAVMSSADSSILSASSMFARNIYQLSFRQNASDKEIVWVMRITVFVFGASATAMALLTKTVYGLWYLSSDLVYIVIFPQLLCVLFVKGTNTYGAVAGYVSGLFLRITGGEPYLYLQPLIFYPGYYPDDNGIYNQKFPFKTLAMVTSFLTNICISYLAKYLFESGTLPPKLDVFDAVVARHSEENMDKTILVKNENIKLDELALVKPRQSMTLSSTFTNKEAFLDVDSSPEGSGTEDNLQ", "test": "human choline transporter blockers, potency – cell-based, 5-point CRC, membrane potential dye, dose response (AID 504840)", "format": "functional"}, "[3]": {"target": "NAD-dependent protein deacylase sirtuin-5, mitochondrial (Homo sapiens, UniProt Q9NXA8)", "sequence (Q9NXA8 whole entry)": "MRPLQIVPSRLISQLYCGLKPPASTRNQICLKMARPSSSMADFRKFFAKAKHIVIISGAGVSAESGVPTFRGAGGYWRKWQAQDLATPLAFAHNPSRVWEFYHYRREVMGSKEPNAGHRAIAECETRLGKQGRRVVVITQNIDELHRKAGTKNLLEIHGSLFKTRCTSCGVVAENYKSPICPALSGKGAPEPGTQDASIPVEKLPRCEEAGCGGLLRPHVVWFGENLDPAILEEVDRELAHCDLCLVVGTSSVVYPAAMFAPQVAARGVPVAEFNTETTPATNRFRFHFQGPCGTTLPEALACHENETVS", "test": "sirtuin-5 deacylation blockers, concentration series – biochemical, fluorescence imaging, cherry-pick, set 5, dose response (AID 720591);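 note: desuccinylation of succinyl peptide AMC substrate read as fluorescence after trypsin release; potency of inhibitors that lower fluorescence and may act on trypsin instead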"}, "[4]": {"target": "5-hydroxytryptamine receptor 2A (Mus musculus, UniProt P35363)", "sequence (P35363 whole entry)": "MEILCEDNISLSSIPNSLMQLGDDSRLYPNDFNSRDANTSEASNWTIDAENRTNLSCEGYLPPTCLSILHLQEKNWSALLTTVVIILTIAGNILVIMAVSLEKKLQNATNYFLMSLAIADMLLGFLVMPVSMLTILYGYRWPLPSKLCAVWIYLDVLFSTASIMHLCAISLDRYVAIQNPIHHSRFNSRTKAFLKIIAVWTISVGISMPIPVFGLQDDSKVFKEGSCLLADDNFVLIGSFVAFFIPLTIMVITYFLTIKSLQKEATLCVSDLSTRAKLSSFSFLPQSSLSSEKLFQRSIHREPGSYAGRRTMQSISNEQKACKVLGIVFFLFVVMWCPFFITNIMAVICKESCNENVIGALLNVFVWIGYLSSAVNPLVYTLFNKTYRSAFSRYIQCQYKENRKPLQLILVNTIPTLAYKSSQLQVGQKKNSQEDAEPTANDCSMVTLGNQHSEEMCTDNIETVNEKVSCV", "format": "functional, cell-based"}, "[5]": {"target": "Mu-type opioid receptor (Homo sapiens, UniProt P35372)", "sequence (P35372 whole entry)": "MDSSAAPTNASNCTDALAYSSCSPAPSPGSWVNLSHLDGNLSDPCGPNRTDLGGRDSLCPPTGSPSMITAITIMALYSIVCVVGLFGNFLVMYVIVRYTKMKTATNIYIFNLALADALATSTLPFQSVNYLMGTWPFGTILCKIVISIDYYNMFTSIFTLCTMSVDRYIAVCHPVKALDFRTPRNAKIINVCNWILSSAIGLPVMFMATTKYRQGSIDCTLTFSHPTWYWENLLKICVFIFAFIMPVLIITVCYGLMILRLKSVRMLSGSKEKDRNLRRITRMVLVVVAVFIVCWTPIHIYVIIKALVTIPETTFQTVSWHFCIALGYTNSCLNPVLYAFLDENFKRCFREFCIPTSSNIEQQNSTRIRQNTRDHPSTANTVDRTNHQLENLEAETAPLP", "format": "functional, cell-based"}, "[6]": {"target": "T3, Long-chain-fatty-acid--AMP ligase FadD28 (Mycobacterium tuberculosis, UniProt P9WQ59)", "T3 sequence (P9WQ59 whole entry)": "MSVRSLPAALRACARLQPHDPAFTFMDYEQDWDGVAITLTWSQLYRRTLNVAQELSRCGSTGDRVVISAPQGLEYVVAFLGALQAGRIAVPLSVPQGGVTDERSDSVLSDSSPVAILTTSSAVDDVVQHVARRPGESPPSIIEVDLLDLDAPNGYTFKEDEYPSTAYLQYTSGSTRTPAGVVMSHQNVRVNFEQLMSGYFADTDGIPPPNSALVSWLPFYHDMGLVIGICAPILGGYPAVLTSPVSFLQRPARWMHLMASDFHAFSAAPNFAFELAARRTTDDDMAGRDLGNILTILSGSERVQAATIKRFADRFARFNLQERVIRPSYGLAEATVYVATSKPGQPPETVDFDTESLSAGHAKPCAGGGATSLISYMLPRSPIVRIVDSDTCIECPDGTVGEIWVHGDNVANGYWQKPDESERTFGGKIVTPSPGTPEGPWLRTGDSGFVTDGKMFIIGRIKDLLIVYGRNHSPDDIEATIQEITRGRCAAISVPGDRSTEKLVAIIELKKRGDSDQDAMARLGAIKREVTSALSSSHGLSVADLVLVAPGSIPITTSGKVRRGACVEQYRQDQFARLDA", "test": "Fluorescence polarization aasay to screen for inhibitors that compete for the binding of FadD28 to a bisubstrate Measured in Biochemical System Using Plate Reader - 2147-01_Inhibitor_Dose_CherryPick_Activity.", "format": "functional, Mycobacterium tuberculosis H37Rv"}, "[7]": {"system": "Streptococcus", "test": "GAS UMAA2166 growth inhibition – luminescence, BacTiterGlo, counter-screen for streptokinase expression inhibitor project, dose response (AID 1915)", "format": "functional, organism-based"}, "[8]": {"target": "T4, Streptokinase A (Streptococcus pyogenes serotype M1, UniProt P10520)", "T4 sequence (P10520 whole entry)": "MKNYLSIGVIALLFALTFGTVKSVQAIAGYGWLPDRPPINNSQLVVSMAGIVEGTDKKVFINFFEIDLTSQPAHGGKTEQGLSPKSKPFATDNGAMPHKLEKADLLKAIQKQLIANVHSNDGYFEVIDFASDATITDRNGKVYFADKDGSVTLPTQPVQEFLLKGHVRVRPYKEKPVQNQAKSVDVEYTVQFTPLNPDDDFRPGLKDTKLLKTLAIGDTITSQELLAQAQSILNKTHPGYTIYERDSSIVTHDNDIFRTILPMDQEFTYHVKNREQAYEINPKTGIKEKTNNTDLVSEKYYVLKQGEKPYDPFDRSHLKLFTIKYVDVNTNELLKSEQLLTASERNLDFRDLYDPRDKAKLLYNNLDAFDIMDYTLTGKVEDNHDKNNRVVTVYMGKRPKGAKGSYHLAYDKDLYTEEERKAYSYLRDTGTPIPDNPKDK", "test": "viability-normalized secreted streptokinase activity reduction – plasminogen activation absorbance, OD405, dose response (AID 1914)", "format": "functional, Streptococcus pyogenes M1 GAS"}, "[9]": {"system": "Streptococcus sp. 'group A'", "test": "Streptococcus pyogenes SK(-)GAS viability under kanamycin – luminescence, BacTiterGlo, confirmation, counter-screen for streptokinase expression inhibitor project, dose response (AID 1900)", "format": "functional, organism-based"}, "[10]": {"test": "microbe, parasite or virus in culture", "format": "functional", "settings": "Mycobacterium tuberculosis"}, "[11]": {"test": "off-target signal loss in HeLa-CEM21 co-culture – HeLa F-luc CTL cells, cherry-picked, counter-screen for HIV-1 Env fusion inhibitor project, dose response (AID 652040);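 note: potency for signal decrease marking cytotoxic or nonspecific inhibition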", "format": "functional, cell-based"}, "[12]": {"test": "HIV-1 AD8 envelope cell-cell fusion blockers – cherry-pick, dose response (AID 652062);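 note: potency is for inhibitors of fusion seen as a drop in luminescence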", "format": "functional, cell-based"}, "[13]": {"test": "viability loss in CEM21 cells – cell-based, CellTiter-Glo luminescence, cherry-picked, cytotoxicity control for viral fusion inhibitor project, dose response (AID 652042);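 note: potency for signal decrease meaning cytotoxicity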", "format": "functional"}, "[14]": {"test": "blockers of HIV-1 envelope-mediated cell-cell fusion – cherry-pick, dose response (AID 652057)", "format": "functional, cell-based"}, "[15]": {"test": "blockers of HIV-1 ZM109 envelope-driven cell-cell fusion – HeLa effector, CEM target cells, luciferase, cherry-pick, dose response (AID 652058)", "format": "functional, cell-based"}}, "note": "Active and inactive are the calls of the source.", "data": [{"smiles": "Fc1ccc2cc(-c3ccccc3)ncc2c1", "values": [{"measurement": "IC50", "setting": "[1]", "value": "> 100 µM (inactive)"}]}, {"smiles": "Cc1nn(-c2ccccc2)c2nc(O)cc(C(F)(F)F)c12", "values": [{"measurement": "IC50", "setting": "[2]", "value": "7.1 µM (active)"}, {"measurement": "AC50", "setting": "[3]", "value": "> 30 µM (inactive)"}]}, {"smiles": "COc1cccc(C(=O)NNC(=O)CCN2CCN(c3ccccc3)CC2)c1", "values": [{"measurement": "EC50", "setting": "[4]", "value": "0.427 µM (active)"}, {"measurement": "EC50", "setting": "[5]", "value": "92.4 µM (inactive)"}]}, {"smiles": "O=C(Nc1ccc(CN2CCOCC2)cc1)c1cc2ccccc2o1", "values": [{"measurement": "IC50", "setting": "[1]", "value": "15.4 µM (active)"}]}, {"smiles": "O=C(c1ccco1)N1CCN(Cc2ccc(Cl)cc2)CC1", "values": [{"measurement": "EC50", "setting": "[4]", "value": "4.08 µM (active)"}, {"measurement": "EC50", "setting": "[5]", "value": "92.5 µM (inactive)"}]}, {"smiles": "CN(CC(=O)Nc1cccc(Cl)c1)S(=O)(=O)c1ccc2c(c1)n(C)c(=O)c(=O)n2C", "values": [{"measurement": "AC50", "setting": "[3]", "value": "> 30 µM (inactive)"}]}, {"smiles": "CCn1cc(CN2CCC(C(=O)Nc3ccc(Oc4cccnc4)cc3)CC2)cn1", "values": [{"measurement": "AC50", "setting": "[6]", "value": "37.3 µM (active)"}, {"measurement": "EC50", "setting": "[7]", "value": "> 150 µM (not active)"}, {"measurement": "EC50", "setting": "[8]", "value": "> 150 µM (not active)"}, {"measurement": "EC50", "setting": "[9]", "value": "> 150 µM (not active)"}]}, {"smiles": "COc1ccc(NC(=O)N[C@@H](CCSC)C(=O)O)cc1OC", "values": [{"measurement": "AC50", "setting": "[3]", "value": "> 30 µM (inactive)"}]}, {"smiles": "Cc1ccc(C2CC(=O)N3CN(Cc4ccco4)CSC3=C2C#N)cc1", "note": "(configuration not stated)", "values": [{"measurement": "AC50", "setting": "[6]", "value": "82.5 µM (active)"}]}, {"smiles": "CC(C)OC(=O)CSc1nnc(SCc2cccc3ccccc23)s1", "values": [{"measurement": "IC50", "setting": "[1]", "value": "> 100 µM (inactive)"}]}, {"smiles": "Cc1[nH]c2ccc(OC(F)(F)F)cc2c1CCNCc1ccc(Cl)cc1", "values": [{"measurement": "CC50", "setting": "[10]", "value": "12.6 µM (active)"}, {"measurement": "AC50", "setting": "[11]", "value": "1.71 µM (active)"}, {"measurement": "AC50", "setting": "[12]", "value": "5.12 µM (active)"}, {"measurement": "AC50", "setting": "[13]", "value": "9.56 µM (active)"}, {"measurement": "AC50", "setting": "[14]", "value": "0.838 µM (active)"}, {"measurement": "AC50", "setting": "[15]", "value": "1.24 µM (active)"}]}]}
